These results are taken from US20220098196A1, “TRAPPING-FREE PARP INHIBITORS” (The Board of Regents of the University of Texas System, priority 2019, published 2022).

The subject of one test is HeLa cells. Description: TMT global protein expression analysis in HeLa cells (whole proteome). The class given is cell-based, human. The procedure: (§1) Quantitative Mass Spectrometry. […] Two biological replicate samples were prepared for each treatment condition. Cells were washed with cold PBS and lysed using the SDS lysis buffer. Protein concentrations were determined by the BCA assay (Thermo Fisher Scientific). For each sample, 500 μg of protein was used for the subsequent TMT experiments^34.
For the TMT experiments, proteins were reduced with 2 mM DTT for 10 min and alkylated with 50 mM iodoacetamide for 30 min in dark. Proteins were then extracted using methanol-chloroform precipitation. […] Proteins were subsequently digested with trypsin (Thermo Fisher Scientific, at 1:100 enzyme/protein ratio) overnight at RT. Peptides were desalted with Oasis HLB cartridges (Waters) and resuspended in 200 mM HEPES (pH 8.5) to a final concentration of […]. For each sample, 100 μg of peptides were reacted with the corresponding amine-based TMT six-plex reagents (Thermo Fisher Scientific) for 1 hour. The reactions were quenched with 5% hydroxylamine solution and were combined.
Samples were desalted and fractioned by bRPLC (basic pH reversed phase HPLC) on a ZORBAX 300 Extend-C18 column (Narrow Bore RR 2.1 mm×100 mm, 3.5 μm particle size, 300 Å pore size). Buffer A is (10 mM Ammonium Formate in H2O, pH 10.0). Gradient was developed at a flow rate of 0.2 mL/min from 0% to 70% buffer B (1 mM Ammonium Formate, pH 10.0, 90% ACN). […] Samples were then analyzed on an Orbitrap Elite mass spectrometer (Thermo Fisher Scientific) using a top 15 HCD (higher-energy collisional dissociation) method.
(§2) The maximum intensity of each reporter ion was extracted. For each reporter ion channel, the observed signal-to-noise ratio was summed across all quantified proteins and was normalized.

Another test deals with PARP2 (Homo sapiens, UniProt Q9UGN5). The note with it: HeLa cells, iRucaparib 5 μM, 24 hours. As to the method:
as §1
(§3) For the TMT experiments, proteins were reduced with 2 mM DTT for 10 min and alkylated with 50 mM iodoacetamide for 30 min in dark. Proteins were then extracted using methanol-chloroform precipitation. Protein pellets were dissolved in 400 μL 8 M Urea buffer (8 M urea, 50 mM Tris-HCl, 10 mM EDTA, pH 7.5) and were digested by Lys-C (Wako, at a 1:100 enzyme/protein ratio) for 2 hours at RT. The urea concentration was then reduced to 2 M using freshly made 100 mM ammonium bicarbonate solution. […]
(§4) Samples were desalted and fractioned by bRPLC (basic pH reversed phase HPLC) on a ZORBAX 300 Extend-C18 column (Narrow Bore RR 2.1 mm×100 mm, 3.5 μm particle size, 300 Å pore size). […] Samples were then analyzed on an Orbitrap Elite mass spectrometer (Thermo Fisher Scientific) using a top 15 HCD (higher-energy collisional dissociation) method.
as §2

The next test addresses ZFP91 (Homo sapiens, UniProt Q96JP5+Q96SW2). The conditions noted are these: HeLa cells, 5 μM, 24 hours. The procedure:
as §1, §3, §4, §2

For test [1], the target named is T1, aldehyde dehydrogenase, mitochondria (ALDH2) (Homo sapiens, UniProt P05091).
T1 construct: host or cells: HeLa
T1 sequence (P05091 18-517): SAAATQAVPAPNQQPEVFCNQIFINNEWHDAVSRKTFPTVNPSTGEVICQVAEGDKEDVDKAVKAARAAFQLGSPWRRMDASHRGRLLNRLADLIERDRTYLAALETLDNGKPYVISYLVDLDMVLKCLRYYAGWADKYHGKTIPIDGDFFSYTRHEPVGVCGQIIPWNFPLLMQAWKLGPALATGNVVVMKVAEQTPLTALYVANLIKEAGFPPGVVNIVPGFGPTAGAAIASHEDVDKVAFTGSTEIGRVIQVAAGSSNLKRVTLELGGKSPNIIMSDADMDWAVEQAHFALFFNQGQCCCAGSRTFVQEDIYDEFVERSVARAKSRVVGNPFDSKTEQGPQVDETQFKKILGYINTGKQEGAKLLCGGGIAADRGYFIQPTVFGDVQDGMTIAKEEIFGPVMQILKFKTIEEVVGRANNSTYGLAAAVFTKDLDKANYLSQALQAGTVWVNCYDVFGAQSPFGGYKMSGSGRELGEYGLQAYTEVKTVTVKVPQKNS
Kind of test: TMT quantitative proteomics in HeLa cells, ALDH2. The class given is cell-based. The note with it: 5 μM, 24 hours. The source says:
(§5) Quantitative Mass Spectrometry.
(§6) Proteins were then extracted using methanol-chloroform precipitation.
(§7) The maximum intensity of each reporter ion was extracted.

The target in test [2] is PARP1 (Homo sapiens, UniProt P09874). Kind of test: TMT quantitative proteomics in BT-549 cells, PARP1. The class given is cell-based. The conditions noted are these: iRucaparib 5 μM or VHL-Rucaparib 20 μM, 24 hours, 8,207 quantified proteins.
Description: as §5, §6, §7

Test [3] addresses T2, PARP1 (Mus musculus, UniProt P11103).
T2 construct: host or cells: C2C12 myoblasts / differentiated myotubes
Description: PARP1 degradation in C2C12 myoblasts and myotubes (immunoblotting). The note with it: 24 hours. The class given is cell-based. (In western blotting, separated proteins are transferred to a membrane and probed.)
Description: Immunoblotting. Cells were washed once with cold PBS and lysed with the SDS lysis buffer (1% SDS, 10 mM HEPES pH 7.0, 2 mM MgCl2, 500 U universal nuclease). Protein concentrations were determined by the BCA assay kit (Thermo Fisher Scientific). A total of 20 μg proteins (40 μg proteins for PAR immunoblotting experiments) were loaded onto the SDS-PAGE gel and were then transferred to a nitrocellulose membrane. Nitrocellulose membranes were then blocked with the TBST buffer containing 5% milk (Bio-Rad). Membranes were incubated with the primary antibodies overnight at 4° C. and the secondary antibodies for 1 hour at room temperature (RT). The blots were developed using enhanced chemiluminescence and were exposed on autoradiograph films.

The subject of test [4] is primary rat cardiomyocytes. Description: ATP measurement in primary rat cardiomyocytes after MMS (CellTiter-Glo). The note with it: 5 μM 24 hours pretreatment, MMS 0.01% 9 hours. The class given is cell-based. The procedure: ATP and NAD^+ measurement. ATP levels were measured by a luminescence assay using the CellTiter-Glo luminescent kit (Promega). […] The cells were balanced for 30 min at RT. One hundred microliters of the CellTiter-Glo reagent was added into each well and incubated for 10 min. ATP levels were determined according the manufacturer's instruction. NAD^+ levels were assayed using an NAD/NADH quantification kit (Sigma). […] Approximately 2×10^5 cells were washed with 1 mL cold PBS and lysed in 400 μl of the extraction buffer. […] The samples were vortexed for 15 sec and centrifuged at 13,000 g for 10 min to remove the insoluble materials. NAD^+ was quantified according to the manufacturer's instruction (Sigma). Fifty microliters of the extracts were used in the NAD^+ assay, and the values were normalized by the amount of protein in each sample.
Background: Cellular ATP, detected with luciferase, serves as a proxy for viable cell number.

T2 sequence (P11103 whole entry): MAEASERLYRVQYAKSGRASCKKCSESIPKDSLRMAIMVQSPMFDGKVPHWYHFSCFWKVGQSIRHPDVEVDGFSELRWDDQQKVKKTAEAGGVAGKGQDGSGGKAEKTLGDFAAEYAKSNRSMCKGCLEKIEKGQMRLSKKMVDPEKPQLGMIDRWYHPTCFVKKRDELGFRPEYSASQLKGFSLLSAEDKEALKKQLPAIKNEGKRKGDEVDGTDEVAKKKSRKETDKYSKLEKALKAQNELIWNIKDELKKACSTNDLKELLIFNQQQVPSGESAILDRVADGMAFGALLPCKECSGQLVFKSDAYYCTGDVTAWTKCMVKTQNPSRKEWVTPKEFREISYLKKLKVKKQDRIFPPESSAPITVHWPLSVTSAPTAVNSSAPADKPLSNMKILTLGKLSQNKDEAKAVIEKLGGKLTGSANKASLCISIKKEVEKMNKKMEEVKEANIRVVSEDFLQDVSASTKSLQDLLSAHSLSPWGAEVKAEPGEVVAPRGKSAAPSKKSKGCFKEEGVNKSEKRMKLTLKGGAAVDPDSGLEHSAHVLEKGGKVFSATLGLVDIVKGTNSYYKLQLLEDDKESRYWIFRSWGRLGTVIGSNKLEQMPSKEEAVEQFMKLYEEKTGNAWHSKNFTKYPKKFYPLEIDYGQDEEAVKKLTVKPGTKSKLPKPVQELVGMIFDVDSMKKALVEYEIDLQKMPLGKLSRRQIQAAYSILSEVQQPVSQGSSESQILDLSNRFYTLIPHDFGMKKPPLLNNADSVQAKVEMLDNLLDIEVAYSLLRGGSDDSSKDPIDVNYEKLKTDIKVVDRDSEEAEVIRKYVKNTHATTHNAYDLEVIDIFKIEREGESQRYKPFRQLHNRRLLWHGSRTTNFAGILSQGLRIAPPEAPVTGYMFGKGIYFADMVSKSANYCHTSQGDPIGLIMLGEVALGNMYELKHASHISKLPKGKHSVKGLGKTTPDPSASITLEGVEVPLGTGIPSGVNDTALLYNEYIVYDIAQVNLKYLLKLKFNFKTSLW
PARP2, sequence (Q9UGN5 whole entry): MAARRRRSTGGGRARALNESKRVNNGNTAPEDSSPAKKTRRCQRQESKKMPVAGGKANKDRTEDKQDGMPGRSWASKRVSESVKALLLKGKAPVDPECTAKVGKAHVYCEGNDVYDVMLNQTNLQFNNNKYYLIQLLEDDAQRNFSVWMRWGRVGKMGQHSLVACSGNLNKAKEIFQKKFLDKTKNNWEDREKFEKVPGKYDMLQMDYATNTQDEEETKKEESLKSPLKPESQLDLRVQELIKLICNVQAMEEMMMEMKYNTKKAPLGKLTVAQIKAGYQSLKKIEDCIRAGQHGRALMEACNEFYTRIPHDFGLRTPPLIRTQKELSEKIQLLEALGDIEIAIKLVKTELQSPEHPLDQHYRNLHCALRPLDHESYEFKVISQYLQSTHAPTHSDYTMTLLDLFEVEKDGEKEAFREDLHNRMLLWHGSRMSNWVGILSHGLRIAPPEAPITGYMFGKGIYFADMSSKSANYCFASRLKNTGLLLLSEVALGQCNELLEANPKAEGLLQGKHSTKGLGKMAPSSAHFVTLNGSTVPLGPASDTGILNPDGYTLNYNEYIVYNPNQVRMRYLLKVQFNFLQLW
PARP1 (Homo sapiens, UniProt P09874), sequence (P09874 whole entry): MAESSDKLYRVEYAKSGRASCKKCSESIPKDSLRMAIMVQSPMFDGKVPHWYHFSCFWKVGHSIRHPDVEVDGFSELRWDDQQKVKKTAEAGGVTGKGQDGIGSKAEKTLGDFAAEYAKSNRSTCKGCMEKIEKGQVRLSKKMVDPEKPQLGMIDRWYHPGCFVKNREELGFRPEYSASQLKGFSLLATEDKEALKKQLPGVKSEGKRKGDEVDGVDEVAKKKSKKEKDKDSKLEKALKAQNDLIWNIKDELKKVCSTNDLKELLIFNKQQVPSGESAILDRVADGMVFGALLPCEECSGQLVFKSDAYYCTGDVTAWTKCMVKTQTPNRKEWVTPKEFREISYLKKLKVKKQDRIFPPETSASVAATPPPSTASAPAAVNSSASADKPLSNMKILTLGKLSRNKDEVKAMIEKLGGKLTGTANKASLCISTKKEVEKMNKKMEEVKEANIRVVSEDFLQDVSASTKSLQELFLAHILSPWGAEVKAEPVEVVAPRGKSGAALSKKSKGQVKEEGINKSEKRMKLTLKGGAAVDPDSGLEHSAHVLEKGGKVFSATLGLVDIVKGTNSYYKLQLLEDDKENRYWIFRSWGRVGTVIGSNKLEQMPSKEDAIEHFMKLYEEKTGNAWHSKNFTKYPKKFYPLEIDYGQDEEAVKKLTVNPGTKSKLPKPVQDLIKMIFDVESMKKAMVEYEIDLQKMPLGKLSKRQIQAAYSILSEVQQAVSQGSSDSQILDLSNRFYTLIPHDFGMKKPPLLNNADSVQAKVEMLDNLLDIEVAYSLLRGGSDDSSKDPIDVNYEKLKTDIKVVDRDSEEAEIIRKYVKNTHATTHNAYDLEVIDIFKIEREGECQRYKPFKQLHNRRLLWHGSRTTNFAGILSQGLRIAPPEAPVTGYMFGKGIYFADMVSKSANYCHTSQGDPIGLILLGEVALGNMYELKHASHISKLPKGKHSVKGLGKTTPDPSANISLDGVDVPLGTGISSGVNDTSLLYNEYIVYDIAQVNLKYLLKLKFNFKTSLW
ZFP91, sequence (Q16531 2-1140): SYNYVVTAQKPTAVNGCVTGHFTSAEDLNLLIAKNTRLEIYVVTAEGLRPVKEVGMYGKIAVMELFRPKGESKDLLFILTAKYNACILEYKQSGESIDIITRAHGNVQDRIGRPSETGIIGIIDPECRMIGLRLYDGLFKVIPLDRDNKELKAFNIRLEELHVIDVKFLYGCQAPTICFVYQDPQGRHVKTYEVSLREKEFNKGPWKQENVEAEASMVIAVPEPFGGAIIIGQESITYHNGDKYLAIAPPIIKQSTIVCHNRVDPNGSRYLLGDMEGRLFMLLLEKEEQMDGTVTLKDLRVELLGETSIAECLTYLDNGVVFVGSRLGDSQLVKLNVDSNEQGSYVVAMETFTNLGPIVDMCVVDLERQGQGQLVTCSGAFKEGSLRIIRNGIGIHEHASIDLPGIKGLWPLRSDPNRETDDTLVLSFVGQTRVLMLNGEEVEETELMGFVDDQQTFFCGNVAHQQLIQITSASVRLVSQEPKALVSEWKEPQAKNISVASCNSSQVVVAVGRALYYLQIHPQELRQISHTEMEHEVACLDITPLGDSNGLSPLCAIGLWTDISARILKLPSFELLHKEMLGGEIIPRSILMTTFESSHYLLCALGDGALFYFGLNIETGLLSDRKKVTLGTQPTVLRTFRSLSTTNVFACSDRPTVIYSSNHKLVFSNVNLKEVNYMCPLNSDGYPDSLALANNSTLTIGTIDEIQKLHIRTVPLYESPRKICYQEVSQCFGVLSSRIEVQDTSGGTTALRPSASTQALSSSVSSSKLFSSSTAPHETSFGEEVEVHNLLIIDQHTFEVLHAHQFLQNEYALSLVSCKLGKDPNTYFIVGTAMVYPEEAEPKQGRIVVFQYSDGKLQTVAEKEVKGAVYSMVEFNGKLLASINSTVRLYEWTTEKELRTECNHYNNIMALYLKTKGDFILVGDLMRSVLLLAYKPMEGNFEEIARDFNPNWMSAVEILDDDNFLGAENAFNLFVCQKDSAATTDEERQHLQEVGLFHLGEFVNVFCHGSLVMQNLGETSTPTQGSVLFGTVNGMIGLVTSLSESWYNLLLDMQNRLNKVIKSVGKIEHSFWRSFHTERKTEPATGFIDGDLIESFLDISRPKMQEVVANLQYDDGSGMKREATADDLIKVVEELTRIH
ZFP91, sequence (Q96SW2 whole entry): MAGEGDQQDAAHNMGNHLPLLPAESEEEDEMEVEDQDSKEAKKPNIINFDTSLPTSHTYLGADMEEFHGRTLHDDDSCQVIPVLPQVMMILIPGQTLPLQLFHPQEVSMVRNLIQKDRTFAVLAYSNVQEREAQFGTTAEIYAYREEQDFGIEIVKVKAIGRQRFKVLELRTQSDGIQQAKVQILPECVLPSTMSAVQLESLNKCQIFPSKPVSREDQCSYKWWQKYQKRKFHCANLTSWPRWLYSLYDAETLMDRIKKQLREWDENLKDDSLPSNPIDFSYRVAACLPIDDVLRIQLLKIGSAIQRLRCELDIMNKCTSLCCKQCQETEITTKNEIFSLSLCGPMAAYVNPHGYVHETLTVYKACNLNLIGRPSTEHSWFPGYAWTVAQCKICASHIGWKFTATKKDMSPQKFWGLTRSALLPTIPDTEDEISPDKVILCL
ZFP91, sequence (Q96JP5 2-570): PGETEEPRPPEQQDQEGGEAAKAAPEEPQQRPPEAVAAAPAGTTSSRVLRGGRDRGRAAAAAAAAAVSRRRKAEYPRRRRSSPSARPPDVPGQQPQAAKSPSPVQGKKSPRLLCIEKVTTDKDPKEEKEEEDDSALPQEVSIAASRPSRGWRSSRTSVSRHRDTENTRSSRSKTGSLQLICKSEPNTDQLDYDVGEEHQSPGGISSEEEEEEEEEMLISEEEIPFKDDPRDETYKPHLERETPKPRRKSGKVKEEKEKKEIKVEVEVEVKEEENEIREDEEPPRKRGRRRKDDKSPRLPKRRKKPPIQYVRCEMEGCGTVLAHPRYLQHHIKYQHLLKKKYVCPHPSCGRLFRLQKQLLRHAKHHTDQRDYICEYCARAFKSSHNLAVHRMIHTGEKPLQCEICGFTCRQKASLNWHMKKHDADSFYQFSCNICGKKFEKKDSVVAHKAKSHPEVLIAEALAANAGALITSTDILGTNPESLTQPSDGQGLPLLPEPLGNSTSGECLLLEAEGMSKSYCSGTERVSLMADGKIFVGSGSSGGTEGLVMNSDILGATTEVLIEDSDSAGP

`CN(CCCCc1cn(CCOCCOCCOCCNc2cccc3c2C(=O)N(C2CCC(=O)NC2=O)C3=O)nn1)Cc1ccc(-c2[nH]c3cc(F)cc4c3c2CCNC4=O)cc1` (stereo not shown) [iRucaparib, Rucaparib-Triazole-PEG3-Pomalidomide]: the “proteins with 2-fold decrease (potential pomalidomide-induced degradation targets)” value in the test on HeLa cells (DMSO vs. iRucaparib (5 μM) plus Rucaparib (1 μM), 24 hours) was “UBBP4 and ZFP91”. The “number of proteins with abundance decreased by more than 2-fold” value with HeLa cells (iRucaparib 5 μM 24 hours vs DMSO, 7,437 quantified proteins) is given as “five”. Also, the “downregulation of other PARPs (PARP16, PARP14, PARP4, PARP12, PARP9, TNKS1)” value in the test with HeLa cells (iRucaparib 5 μM, 24 hours) is “none of the other PARPs exhibited significant downregulation”. For the same compound, at PARP2, the PARP2 decrease entry is recorded as “about 30%”. Also, the “ZFP91 Log 2(iRucaparib/DMSO) ratio” value at ZFP91 is −2.09. The “ALDH2 Log 2(iRucaparib/DMSO) ratio” value in test [1] was 0.05. Moreover, the PARP1 downregulation result at PARP1 [2] is recorded as “one of the most significantly downregulated proteins”. The “concentration of maximum PARP1 degradation” value on PARP1 [3] (C2C12 myoblasts and fully differentiated C2C12 myotubes) is 5˜10 μM. In addition, the PARP1 degradation entry on PARP1 [3] (C2C12 myoblasts and myotubes) was “efficient PARP1 degradation”. In test [4], the “rescue of MMS-lowered ATP abundances” value is on record as “could be rescued”.
